Values joined by “and” are separate entries in the source; they are usually repeats but may differ in a detail not shown here. Equal entries are not always repeated. Where two headings read alike, the source gives them in different places.
Experiments:
Ps. aeruginosa = assay: in vivo effect on infection of excised wounds in rats; parameters: species or system rats infected with Ps. aeruginosa
Experimental: The activity of the compound of Example 1 was also tested in vivo, in particular the compound was tested for its effect on Bacillus pyocyaneus in the following manner:
Rats are intravenously injected with 1 ml of a 10^8 solution of Ps. aeruginosa. A 20 cm^2 cutaneous excision was then made in the animals.
30 minutes after the injection, the bacteria injected were detected in the vicinity of the wound by the replica method on a solid nutritive medium.
One group of rats was sprayed with the compound of Example 1 (aqueous solution) in the vicinity of the wounds (1 to 3 times daily).
A group of control rats were sprayed with sterile distilled water.

Bacillus subtilis [1] = assay: bactericidal activity, Bacillus subtilis; format: cell-based; details: Table II, 2 hours contact, laboratory temperature, read-out: MIC (bactericidal activity)
Experimental: Bactericidal activity is determined by the following methods: A titrate suspension of bacteria is brought into contact over a period of 2 hours at the temperature of the laboratory with increasing dilutions of the test product. The number of bacteria still alive are counted after passage through a filtering membrane.

spores = assay: sporocidal activity; format: cell-based; details: especially above 35° C. and at a pH around 7
Bacillus pyocyaneus [2] = assay: MIC study in a solid medium on 35 strains of Bacillus pyocyaneus; format: cell-based; details: Pseudomonas aeruginosa, majority of 35 strains, read-out: minimum inhibiting concentration
[3] = acute toxicity, intragastric, mice; details: mouse, in vivo, po, both after 48 hours and after 14 days
Experimental: (§1) The LD50 was calculated by the graphic method of J. T. Lichtfield and F. Wilcoxon (J. Pharm. Exp. Ther. 1949, 96: 99-[…]).

Moraxella glucidolytica = assay: bacteriostatic activity (MIC), Moraxella glucidolytica; format: cell-based; details: Moraxella, 48 h, Table I, 37° C., read-out: MIC
Experimental: (§2) The medium containing the solution to be tested is inoculated in the form of three single striae with a 10^-5 times dilution of a bacterial culture aged 16 to 18 hours grown in salted peptone broth at a temperature of 37° C. After inoculation, the media are stored at 37° C. for 48 hours, after which the bacterial growth is inspected. The MIC (minimum inhibiting concentrations) are expressed in micrograms of pure product per cubic centimeter of gelose medium required for inhibiting the culture (μg/cc). The control substance used is benzalconium chloride.

Enterbacter cloacae = assay: bacteriostatic activity (MIC), Enterbacter cloacae; format: cell-based; details: 48 h, Table I, 37° C., read-out: MIC
Experimental: as §2

[4] = system: spores of B.subtilis var. Niger; assay: sporostatic activity (a), Petri dish dilution; format: cell-based; details: for number of colonies (average of 2 tests): approximately 200 spores
Experimental: (a) 1 cc of a suspension of spores of B.subtilis var. Niger containing approximately 200 spores is placed in one Petri dish, whilst 1 cc of a solution containing 3 g/100 cc of the product (mother solution) or of the same mother solution diluted to 1/10th, 1/100th, etc. up to 1/100,000th, are placed in other Petri dishes. Following the addition of a culture medium, the dishes are agitated, cooled and then placed in an oven. The number of colonies obtained are then determined.

Bacillus pyocyaneus [5] = assay: in vitro MIC on 100 strains of Bacillus pyocyaneus; format: cell-based; details: Pseudomonas aeruginosa, read-out: minimum inhibiting concentration
Experimental: In vitro tests on the activity of the compound of Example 1 were also carried out so as to determine the activity of that compound on Bacillus pyocyaneus. The results of determining the minimum inhibiting concentration on 100 different strains are as follows: […]

in vivo = details: mouse, mice, intravenous, both after 3 minutes and after 14 days
Text: Acute toxicity was again determined in male mice by intravenous administration.

Pseudomonas aeruginosa = assay: bacteriostatic activity (MIC), Pseudomonas aeruginosa; format: cell-based; details: for MIC: Pseudomonas aeruginosa, 48 h
Experimental: (§3) The medium containing the solution to be tested is inoculated in the form of three single striae with a 10^-5 times dilution of a bacterial culture aged 16 to 18 hours grown in salted peptone broth at a temperature of 37° C.
(§4) After inoculation, the media are stored at 37° C. for 48 hours, after which the bacterial growth is inspected. The MIC (minimum inhibiting concentrations) are expressed in micrograms of pure product per cubic centimeter of gelose medium required for inhibiting the culture (μg/cc). The control substance used is benzalconium chloride.
(§5) Tests were also carried out to determine the bacteriostatic activity of other compounds according to the invention by the method described above and in comparison with known substances, in particular with benzalconium chloride (compound T in the Tables).

ocular irritation = format: in vivo; details: 0.1 ml of a 0.5% solution
Experimental: The method used is the method described in the Official Journal of Apr. 21, 1971, page 3863, and comprises applying to the right eye of each animal 0.1 ml of a 0.5% solution. The general total of the results is 0 which confirms the high tolerance of the product mentioned above.

[6] = acute toxicity, intragastric, rats; details: rat, in vivo, po, both after 48 hours and after 14 days
Experimental: as §1

Serratia = assay: bacteriostatic activity (MIC), Serratia; format: cell-based; details: Serratia, 48 h, Table I, 37° C., read-out: MIC
Experimental: as §2

Bacillus subtilis [7] = assay: bacteriostatic activity (MIC), Bacillus subtilis; format: cell-based; details: for MIC: Bacillus subtilis, 48 h
Experimental: as §3, §4, §5

Staphyloccus aureus = assay: bacteriostatic activity (MIC), Staphylococcus aureus; format: cell-based; details: Staphylococcus aureus, 48 h
Experimental: as §3, §4, §5

Bacillus pyocyaneus [8] = assay: bactericidal concentration on 6 different strains; format: cell-based
[9] = aqueous solution sprayed near wounds, 1 to 3 times daily
[10] = Table I, with 20% of serum, 37° C., 48 hours, read-out: MIC
[11] = Table I, without serum, 37° C., 48 hours, read-out: MIC
[12] = Table VI, bacteriostase containing 20% of serum, read-out: M.I.C.
[13] = Table VI, bacteriostase containing 20% of serum, hydrochloride

Compound: CCCCCCCCCCOCC(O)CN.Cl (stereo not shown) [Compound 1, 3-decyloxy-2-hydroxy-1-aminopropane hydrochloride]
- number of colonies in positive cultures in relation to control rats (Ps. aeruginosa; [9]): only a very small number of colonies
- replica cultures totally negative (Ps. aeruginosa; [9]): 75%
- local tolerance (Ps. aeruginosa; rat, in vivo): good
- healing process (Ps. aeruginosa; sprayed near wounds, 1 to 3 times daily): normal
- MBC (Bacillus subtilis [1]): 50 µg/mL
- sporocidal activity (spores): positive
- MIC (Bacillus pyocyaneus [2]): 62.5 µg/mL
- LD50 [3]: 1300 mg/kg
- MIC (Moraxella glucidolytica; with 20% of serum): 75 µg/mL
- MIC (Moraxella glucidolytica; without serum): 40 µg/mL
- MIC (Enterbacter cloacae; with 20% of serum): 80 µg/mL
- MIC (Enterbacter cloacae; without serum): 30 µg/mL
- number of colonies (average of 2 tests) ([4]; 0 dilutions to 1/10 (mother solution 3 g/100 cc)): 0
- number of colonies (average of 2 tests) ([4]; 1 dilution to 1/10 of mother solution 3 g/100 cc): 0
- number of colonies (average of 2 tests) ([4]; 2 dilutions to 1/10 of mother solution 3 g/100 cc): 18
- number of colonies (average of 2 tests) ([4]; 3 dilutions to 1/10 of mother solution 3 g/100 cc): > 200
- number of colonies (average of 2 tests) ([4]; 4 dilutions to 1/10 of mother solution 3 g/100 cc): > 200
- number of colonies (average of 2 tests) ([4]; 5 dilutions to 1/10 of mother solution 3 g/100 cc): > 200
- MIC ([4]; Bacillus subtilis, taking into account the dilution by the gelose culture medium, from Table III, read-out: concentration still showing sporostatic activity): 20 µg/mL
- MIC (Bacillus pyocyaneus [5]; 10 of 100 strains): 100 µg/mL
- MIC (Bacillus pyocyaneus [5]; 20 of 100 strains): 25 µg/mL
- MIC (Bacillus pyocyaneus [5]; 70 of 100 strains): 50 µg/mL
- LD50 (in vivo): 54.5 mg/kg
- MIC (Pseudomonas aeruginosa; [10]): 150 µg/mL
- MIC (Pseudomonas aeruginosa; [11]): 40 µg/mL
- MIC (Pseudomonas aeruginosa; [12]): 250 µg/mL
- M.I.C. (Pseudomonas aeruginosa; [13]): 200 μg/cc and 400 μg/cc and 350 μg/cc
- ocular irritation, general total of the results (ocular irritation): 0
- LD50 [6]: 1300 mg/kg
- MIC (Serratia; with 20% of serum): 75 µg/mL
- MIC (Serratia; without serum): 20 µg/mL
- MIC (Bacillus subtilis [7]; [10]): 50 µg/mL
- MIC (Bacillus subtilis [7]; [11]): 30 µg/mL
- MIC (Bacillus subtilis [7]; [12]): 60 µg/mL
- MIC (Bacillus subtilis [7]; Table VI, bacteriostase without serum, read-out: M.I.C.): 15 µg/mL
- M.I.C. (Bacillus subtilis [7]; [13]): 50 μg/cc and 40 μg/cc
- MIC (Staphyloccus aureus; [10]): 120 µg/mL
- MIC (Staphyloccus aureus; [11]): 60 µg/mL
- MIC (Staphyloccus aureus; [12]): 75 µg/mL
- bactericidal concentration (Bacillus pyocyaneus [8]): very similar to the MIC
